Reference: patent US20080299101A1, “Cancer Treatment Resistance and Agents Modulating Such Resistance” (CENTRE NATIONAL DE LA RECHERCHE SCIENTIFIQUE (CNRS INSTITUT …, priority 2004, published 2008)
Entries after “also recorded” stand apart in the source; their conditions may differ. *1 amine or outer side, *2 acyl side, *3 side chain or, on linkers, in order; H or OH if unused. Where a SMILES comes first, the peptide text is derived from it. Bridges are numbered along the chain shown (N, C = ends). Roman numbers before positions name the chains, in order. [ ]: non-standard residue; d: D form. Actinocin(9to1) = Cc1c2oc3c(C)ccc(C(=O)[*:1])c3nc-2c(C(=O)[*:2])c(N)c1=O; NMeV = CN[C@H](C(=O)O)C(C)C; Sar = CNCC(=O)O

Experiments:
[1] = test system: HCT116/R1; settings: oxaliplatin 0 μM (actD alone)
Description: (§1) Cytotoxicity assays were performed by seeding 4000 cells per well in 96 well plates. […] Cytotoxicity measurements were carried out using the WST-1 colorimetric assay (Boehringer Mannheim) according to the manufacturer's recommendation.

[2] = test system: HCT116/R2; settings: oxaliplatin 0 μM (actD alone)
Description: as §1

[3] = test system: HCT116/S; settings: oxaliplatin 0 μM (actD alone)
Description: as §1

[4] = test system: HCT116/S, HCT116/R1, HCT116/R2; test: Modulation of oxaliplatin cytotoxicity using actinomycin D preincubation (statement in words); type: cell-based; settings: preincubation at moderately toxic concentrations; preliminary

Cc1c2oc3c(C)ccc(C(=O)N[C@@H]4C(=O)N[C@H](C(C)C)C(=O)N5CCC[C@H]5C(=O)N(C)CC(=O)N(C)[C@@H](C(C)C)C(=O)O[C@@H]4C)c3nc-2c(C(=O)N[C@@H]2C(=O)N[C@H](C(C)C)C(=O)N3CCC[C@H]3C(=O)N(C)CC(=O)N(C)[C@@H](C(C)C)C(=O)O[C@@H]2C)c(N)c1=O [actD, actinomycin D] (I: T[dV]P[Sar][NMeV] / II: T[dV]P[Sar][NMeV]; ester I:1-I:C, II:1-II:C; linker I:N-II:N via Actinocin(9to1))
Cytotoxicity of oxali + actD 0.04 nM ([1]; actD 0.04 nM): 17.3% | Cytotoxicity of oxali + actD 0.12 nM ([1]; actD 0.12 nM): 18% | Cytotoxicity of oxali + actD 0.04 nM ([2]; actD 0.04 nM): 20.6% | Cytotoxicity of oxali + actD 0.12 nM ([2]; actD 0.12 nM): 17.7% | Cytotoxicity of oxali + actD 0.36 nM ([2]; actD 0.36 nM): 21.6% | Cytotoxicity of oxali + actD 0.04 nM ([3]; actD 0.04 nM): 9.1% | Cytotoxicity of oxali + actD 0.12 nM ([3]; actD 0.12 nM): 27.6% | Cytotoxicity of oxali + actD 0.36 nM ([3]; actD 0.36 nM): 85.4% | Effect of actinomycin D preincubation on oxaliplatin activity [4]: synergy effect; also recorded: synergistic effect
